Assay results published in ChEMBL document CHEMBL3822371, “Rapid Discovery and Structure-Activity Relationships of Pyrazolopyrimidines That Potently Suppress Breast Cancer Cell Growth via SRC Kinase Inhibition with Exceptional Selectivity over ABL Kinase” (J Med Chem, 2016).
Calls of active or inactive are those of the source. The calls are words filed in the database; no cut-off is given here.

Key:
MCF7 [1] = assay: cells; conditions: Homo sapiens, MCF7, 120 h
MDA-MB-231 [2] = assay: cells; conditions: Homo sapiens, MDA-MB-231, 120 h
[3] = biological target: Proto-oncogene tyrosine-protein kinase receptor Ret (Homo sapiens, UniProt P07949); assay: Inhibition of human RET using poly[Glu,Tyr]4:1 as substrate in presence of [gamma-33P]ATP
[4] = biological target: Serine/threonine-protein kinase mTOR (Homo sapiens, UniProt P42345); assay: Inhibition of human mTOR using poly[Glu,Tyr]4:1 as substrate in presence of [gamma-33P]ATP
MCF7 [5] = assay: Antiproliferative activity against human MCF7 cells assessed as reduction in cell confluence level at […] after 5 days by microscopy based time-lapse imaging assay; assay type: functional
[6] = biological target: Platelet-derived growth factor receptor alpha (Homo sapiens, UniProt P16234); assay: Inhibition of human PDGFRalpha using poly[Glu,Tyr]4:1 as substrate in presence of [gamma-33P]ATP
Platelet-derived growth factor receptor alpha, sequence (P16234 whole entry): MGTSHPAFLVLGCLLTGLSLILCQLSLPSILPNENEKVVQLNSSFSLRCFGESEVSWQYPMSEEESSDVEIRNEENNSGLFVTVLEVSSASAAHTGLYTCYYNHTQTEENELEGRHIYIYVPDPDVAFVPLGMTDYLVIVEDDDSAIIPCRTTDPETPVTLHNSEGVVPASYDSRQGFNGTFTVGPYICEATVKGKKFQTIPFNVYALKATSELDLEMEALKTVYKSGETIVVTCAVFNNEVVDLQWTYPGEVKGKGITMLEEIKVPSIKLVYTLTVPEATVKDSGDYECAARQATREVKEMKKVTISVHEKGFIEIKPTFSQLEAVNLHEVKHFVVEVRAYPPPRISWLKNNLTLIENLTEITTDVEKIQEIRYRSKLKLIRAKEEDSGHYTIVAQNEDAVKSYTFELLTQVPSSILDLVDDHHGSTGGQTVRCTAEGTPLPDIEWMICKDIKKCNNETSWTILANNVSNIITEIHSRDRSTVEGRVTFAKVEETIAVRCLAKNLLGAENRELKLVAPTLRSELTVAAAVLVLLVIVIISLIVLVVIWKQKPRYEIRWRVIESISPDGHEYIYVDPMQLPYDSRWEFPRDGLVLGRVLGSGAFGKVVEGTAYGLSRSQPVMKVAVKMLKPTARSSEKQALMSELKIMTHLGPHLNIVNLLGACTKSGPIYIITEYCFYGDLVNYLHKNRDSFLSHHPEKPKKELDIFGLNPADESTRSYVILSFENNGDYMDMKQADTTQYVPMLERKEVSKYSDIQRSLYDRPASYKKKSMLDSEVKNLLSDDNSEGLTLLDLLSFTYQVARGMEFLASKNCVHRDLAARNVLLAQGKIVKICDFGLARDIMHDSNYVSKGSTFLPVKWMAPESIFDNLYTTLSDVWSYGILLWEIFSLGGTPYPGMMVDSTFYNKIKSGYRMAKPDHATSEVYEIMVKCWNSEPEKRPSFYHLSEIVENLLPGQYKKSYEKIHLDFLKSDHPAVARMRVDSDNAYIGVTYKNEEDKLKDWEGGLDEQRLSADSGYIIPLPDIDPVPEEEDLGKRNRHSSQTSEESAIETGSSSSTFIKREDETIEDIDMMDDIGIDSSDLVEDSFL

[7] = biological target: Mast/stem cell growth factor receptor Kit (Homo sapiens, UniProt P10721); assay: Inhibition of human KIT using poly[Glu,Tyr]4:1 as substrate in presence of [gamma-33P]ATP
Mast/stem cell growth factor receptor Kit, sequence (P10721 whole entry): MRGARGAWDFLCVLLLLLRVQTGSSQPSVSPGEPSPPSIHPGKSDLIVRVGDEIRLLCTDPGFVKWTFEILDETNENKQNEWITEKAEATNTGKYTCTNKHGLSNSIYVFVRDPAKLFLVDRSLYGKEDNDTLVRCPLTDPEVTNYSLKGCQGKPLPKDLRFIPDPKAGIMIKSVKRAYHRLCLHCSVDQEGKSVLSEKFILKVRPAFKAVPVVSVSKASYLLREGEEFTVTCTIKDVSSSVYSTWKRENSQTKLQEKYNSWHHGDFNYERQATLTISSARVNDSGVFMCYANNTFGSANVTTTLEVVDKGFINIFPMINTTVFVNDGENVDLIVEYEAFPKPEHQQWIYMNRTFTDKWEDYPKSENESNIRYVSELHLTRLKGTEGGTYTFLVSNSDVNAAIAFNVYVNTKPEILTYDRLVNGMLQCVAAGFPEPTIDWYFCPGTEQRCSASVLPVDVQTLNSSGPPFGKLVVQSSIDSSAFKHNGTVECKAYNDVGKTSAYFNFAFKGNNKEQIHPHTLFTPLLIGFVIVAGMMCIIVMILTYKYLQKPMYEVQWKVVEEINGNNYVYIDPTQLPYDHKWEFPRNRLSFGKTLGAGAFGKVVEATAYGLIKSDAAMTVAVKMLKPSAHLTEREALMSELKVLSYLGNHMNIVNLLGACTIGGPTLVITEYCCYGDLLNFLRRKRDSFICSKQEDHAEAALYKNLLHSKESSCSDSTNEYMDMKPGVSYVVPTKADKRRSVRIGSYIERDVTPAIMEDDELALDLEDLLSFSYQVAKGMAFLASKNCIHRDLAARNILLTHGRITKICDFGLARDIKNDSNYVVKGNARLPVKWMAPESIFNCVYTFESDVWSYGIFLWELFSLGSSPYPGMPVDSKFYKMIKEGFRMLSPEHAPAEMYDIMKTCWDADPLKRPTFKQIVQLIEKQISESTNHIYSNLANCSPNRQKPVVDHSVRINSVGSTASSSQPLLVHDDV

[8] = Antiproliferative activity against SRC, YES and FYN deficient mouse SYF cells at 3 to 100 nM; assay type: cell-based; conditions: 0.1 µM
[9] = biological target: T1, Proto-oncogene tyrosine-protein kinase Src (Homo sapiens, UniProt P12931); assay: biochemical; assay type: cell-based
T1 sequence (P12931 2-536 limits assumed): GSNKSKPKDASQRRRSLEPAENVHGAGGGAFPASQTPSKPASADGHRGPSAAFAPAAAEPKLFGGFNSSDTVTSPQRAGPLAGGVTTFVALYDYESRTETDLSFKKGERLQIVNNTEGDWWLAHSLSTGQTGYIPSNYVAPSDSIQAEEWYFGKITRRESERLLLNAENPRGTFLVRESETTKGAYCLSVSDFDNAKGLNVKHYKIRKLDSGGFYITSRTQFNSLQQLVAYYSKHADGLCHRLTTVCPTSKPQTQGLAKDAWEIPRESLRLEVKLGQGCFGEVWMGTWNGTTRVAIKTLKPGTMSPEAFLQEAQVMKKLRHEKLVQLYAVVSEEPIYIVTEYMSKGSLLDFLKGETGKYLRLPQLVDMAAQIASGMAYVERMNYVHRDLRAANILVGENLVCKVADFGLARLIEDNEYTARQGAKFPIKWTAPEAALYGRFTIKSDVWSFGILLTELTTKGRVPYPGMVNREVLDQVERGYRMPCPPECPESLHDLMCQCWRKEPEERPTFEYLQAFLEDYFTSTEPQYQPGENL

[10] = biological target: Tyrosine-protein kinase Yes (Homo sapiens, UniProt P07947); assay: Inhibition of human YES using poly[Glu,Tyr]4:1 as substrate in presence of [gamma-33P] ATP
Tyrosine-protein kinase Yes, sequence (P07947 whole entry): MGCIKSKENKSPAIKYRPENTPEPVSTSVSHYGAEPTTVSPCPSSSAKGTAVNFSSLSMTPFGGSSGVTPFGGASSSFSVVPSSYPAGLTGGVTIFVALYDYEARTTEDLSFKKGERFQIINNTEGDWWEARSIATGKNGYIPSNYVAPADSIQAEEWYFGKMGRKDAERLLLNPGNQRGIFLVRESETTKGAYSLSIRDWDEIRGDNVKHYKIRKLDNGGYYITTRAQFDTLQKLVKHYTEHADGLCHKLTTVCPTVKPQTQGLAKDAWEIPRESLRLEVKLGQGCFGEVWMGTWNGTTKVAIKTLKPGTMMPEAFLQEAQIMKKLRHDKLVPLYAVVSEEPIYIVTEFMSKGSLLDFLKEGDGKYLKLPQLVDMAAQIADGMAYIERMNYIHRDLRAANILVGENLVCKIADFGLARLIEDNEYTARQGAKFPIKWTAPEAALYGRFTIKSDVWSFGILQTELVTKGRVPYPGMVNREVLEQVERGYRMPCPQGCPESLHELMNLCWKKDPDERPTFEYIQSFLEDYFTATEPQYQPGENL

[11] = biological target: Tyrosine-protein kinase Fyn (Homo sapiens, UniProt P06241); assay: Inhibition of human FYN using poly[Glu,Tyr]4:1 as substrate in presence of [gamma-33P]ATP
MCF7 [12] = assay: Antiproliferative activity against human MCF7 cells assessed as blockage of cell division at […] after 48 to 120 hrs by microscopy based time-lapse imaging assay; assay type: functional
[13] = biological target: Tyrosine-protein kinase ABL1 (Homo sapiens, UniProt P00519)
Tyrosine-protein kinase ABL1, sequence (P00519 whole entry): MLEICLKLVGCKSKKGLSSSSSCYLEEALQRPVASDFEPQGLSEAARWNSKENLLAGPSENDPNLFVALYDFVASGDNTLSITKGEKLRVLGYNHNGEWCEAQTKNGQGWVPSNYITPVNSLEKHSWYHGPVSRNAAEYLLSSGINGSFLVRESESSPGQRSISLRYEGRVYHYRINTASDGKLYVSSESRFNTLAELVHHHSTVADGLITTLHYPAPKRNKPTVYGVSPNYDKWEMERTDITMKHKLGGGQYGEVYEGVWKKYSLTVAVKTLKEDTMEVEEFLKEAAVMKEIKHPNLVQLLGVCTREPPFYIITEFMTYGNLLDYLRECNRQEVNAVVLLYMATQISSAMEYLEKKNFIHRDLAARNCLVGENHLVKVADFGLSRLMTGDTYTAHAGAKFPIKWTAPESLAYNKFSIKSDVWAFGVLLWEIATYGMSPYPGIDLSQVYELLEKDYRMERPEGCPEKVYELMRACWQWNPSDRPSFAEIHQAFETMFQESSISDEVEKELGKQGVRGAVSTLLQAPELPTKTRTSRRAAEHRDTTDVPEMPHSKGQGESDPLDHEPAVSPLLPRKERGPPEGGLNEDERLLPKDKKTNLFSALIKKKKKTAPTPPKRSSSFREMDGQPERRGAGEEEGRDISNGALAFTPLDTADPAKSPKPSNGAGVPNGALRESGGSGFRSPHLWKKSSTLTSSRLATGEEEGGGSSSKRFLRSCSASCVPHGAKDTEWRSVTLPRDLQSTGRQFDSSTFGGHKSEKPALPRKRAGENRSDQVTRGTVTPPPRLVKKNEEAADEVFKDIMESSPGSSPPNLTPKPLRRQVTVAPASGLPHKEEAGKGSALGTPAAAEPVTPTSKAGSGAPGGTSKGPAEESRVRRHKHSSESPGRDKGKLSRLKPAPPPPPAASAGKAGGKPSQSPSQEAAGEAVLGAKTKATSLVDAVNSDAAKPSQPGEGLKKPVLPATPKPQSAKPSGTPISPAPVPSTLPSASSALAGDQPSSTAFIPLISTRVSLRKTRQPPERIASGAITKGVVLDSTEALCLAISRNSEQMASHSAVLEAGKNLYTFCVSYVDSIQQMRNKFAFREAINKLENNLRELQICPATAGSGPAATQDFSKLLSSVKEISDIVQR

MDA-MB-231 [14] = assay: Antimigratory activity in human MDA-MB-231 cells at >10 nM after 24 hrs by microscopy based scratch-wound cell migration assay; assay type: functional
MCF7 [15] = assay: Induction of apoptosis in human MCF7 cells assessed as caspase 3/7 activity at >/= 100 nM after 5 days using phase contrast and fluorescent microscopy; assay type: functional, cell-based
[16] = biological target: T1, Proto-oncogene tyrosine-protein kinase Src
Cytochrome P450 2C9 = Cytochrome P450 2C9 (Homo sapiens, UniProt P11712); assay: Inhibition of CYP2C9 (unknown origin) at 10 uM; assay type: ADME
Plasma [17] = assay: Metabolic stability in rat plasma at 1 uM after 20 to 120 mins by LC-MS/MS analysis; assay type: ADME, cell-free
Cytochrome P450 2C19 = Cytochrome P450 2C19 (Homo sapiens, UniProt P33261); assay: Inhibition of CYP2C19 (unknown origin) at 10 uM; assay type: ADME
MDA-MB-231 [18] = assay: Cytotoxicity against human MDA-MB-231 cells assessed as reduction in cell viability at >10 nM after 24 hrs; assay type: cell-based; conditions: mda-mb-231, 24 h
Cytochrome P450 2D6 = Cytochrome P450 2D6 (Homo sapiens, UniProt P10635); assay: Inhibition of CYP2D6 (unknown origin) at 10 uM; assay type: ADME
Plasma [19] = assay: Metabolic stability in human plasma at 1 uM after 20 to 120 mins by LC-MS/MS analysis; assay type: ADME, cell-free
[20] = biological target: Focal adhesion kinase 1 (Mus musculus) (UniProt P34152); assay: Inhibition of FAK phosphorylation at tyrosine 861 in SRC, YES and FYN deficient mouse SYF cells at 3 to 100 nM preincubated for 1.5 hrs followed by serum stimulation for 1 hr by Western blot analysis; assay type: cell-based
Cytochrome P450 1A2 = biological target: T2, Cytochrome P450 1A2 (Homo sapiens, UniProt P05177); assay: Inhibition of CYP1A2 (unknown origin) at 10 uM; assay type: ADME
T2 sequence (P05177 whole entry): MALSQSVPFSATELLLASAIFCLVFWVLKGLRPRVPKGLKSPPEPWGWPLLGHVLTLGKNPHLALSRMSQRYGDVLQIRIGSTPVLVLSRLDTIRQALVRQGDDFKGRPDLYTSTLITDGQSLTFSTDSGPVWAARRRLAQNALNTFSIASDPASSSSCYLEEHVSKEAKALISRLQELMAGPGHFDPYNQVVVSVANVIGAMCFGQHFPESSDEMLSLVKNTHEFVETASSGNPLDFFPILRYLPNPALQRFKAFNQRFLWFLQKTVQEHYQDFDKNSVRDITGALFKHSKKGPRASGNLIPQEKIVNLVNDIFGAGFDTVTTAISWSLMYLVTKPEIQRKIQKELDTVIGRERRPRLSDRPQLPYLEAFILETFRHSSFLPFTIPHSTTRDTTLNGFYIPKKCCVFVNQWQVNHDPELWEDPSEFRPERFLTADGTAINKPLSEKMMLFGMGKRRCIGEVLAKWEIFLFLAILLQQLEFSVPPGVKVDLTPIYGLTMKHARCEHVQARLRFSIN

Mus musculus = assay: In vivo inhibition of SRC phosphorylation at tyrosine 416 in human HCT116 cells xenografted in mouse at 50 mg/kg via oral gavage administered daily for 3 days measured 3 hrs post last dose by immunohistochemistry; assay type: functional, organism-based; conditions: HCT-116
Danio rerio [21] = species: Danio rerio; assay: Effect on the development of the wild-type zebrafish embryos at 500 uM treated for 4 hrs measured at 48 hrs by fluorescent microscopy; assay type: ADME, organism-based; conditions: in vivo
Plasma [22] = assay: Metabolic stability in mouse plasma at 1 uM after 20 to 120 mins by LC-MS/MS analysis; assay type: ADME, cell-free
Cytochrome P450 3A4 = Cytochrome P450 3A4 (Homo sapiens, UniProt P08684); assay: Inhibition of CYP3A4 (unknown origin) at 10 uM; assay type: ADME
Cytochrome P450 3A4, sequence (P08684 whole entry): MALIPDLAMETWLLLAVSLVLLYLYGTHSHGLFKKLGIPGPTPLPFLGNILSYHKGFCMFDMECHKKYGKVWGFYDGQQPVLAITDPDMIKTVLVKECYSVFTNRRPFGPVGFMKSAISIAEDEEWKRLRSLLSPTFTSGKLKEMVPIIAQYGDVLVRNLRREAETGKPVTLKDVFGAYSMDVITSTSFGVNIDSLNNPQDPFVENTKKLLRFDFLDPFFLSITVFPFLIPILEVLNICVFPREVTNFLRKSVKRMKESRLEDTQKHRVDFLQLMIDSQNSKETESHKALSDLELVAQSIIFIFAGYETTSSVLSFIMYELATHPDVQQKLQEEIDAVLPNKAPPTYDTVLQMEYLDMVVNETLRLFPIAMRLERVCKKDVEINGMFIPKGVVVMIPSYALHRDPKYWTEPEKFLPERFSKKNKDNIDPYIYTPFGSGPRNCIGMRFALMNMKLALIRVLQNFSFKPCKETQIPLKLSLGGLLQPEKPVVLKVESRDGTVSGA

MDA-MB-231 [23] = assay: Increase in total SRC in human MDA-MB-231 cells preincubated for 1.5 hrs followed by serum stimulation for 1 hr by Western blot analysis; assay type: cell-based; conditions: mda-mb-231, 1 h
Danio rerio [24] = species: Danio rerio; assay: Cardiotoxicity in wild-type zebrafish embryos at >10 uM treated for 4 hrs measured after 48 hrs by fluorescent microscopy; assay type: organism-based; conditions: in vivo
[25] = Half life in nude mouse at 10 mg/kg, […] via oral gavage; assay type: ADME, organism-based; conditions: in vivo
[26] = Solubility of the compound in water at pH 2.6; assay type: physicochemical
Danio rerio [27] = species: Danio rerio; assay: Toxicity in wild-type zebrafish embryos assessed as mortality at >10 uM treated for 4 hrs measured after 48 hrs by fluorescent microscopy; assay type: organism-based; conditions: in vivo
[28] = Solubility of the compound in water at pH 7; assay type: physicochemical
Danio rerio [29] = species: Danio rerio; assay: Cardiotoxicity in wild-type zebrafish embryos assessed as heart enlargement at 1 to 10 uM treated for 4 hrs measured after 48 hrs by fluorescent microscopy; assay type: toxicity, organism-based; conditions: in vivo

CN(C)CC1CCN(CCn2nc(-c3cccc(O)c3)c3c(N)ncnc32)CC1
EC50 (MCF7 [1]): 30.3 µM

CCOC(Cn1nc(-c2cccc(O)c2)c2c(N)ncnc21)OCC
EC50 (MCF7 [1]): 7.6 µM

CN(C)CC1CCN(CCn2nc(-c3ccc4ncccc4c3)c3c(N)ncnc32)CC1
EC50 (MCF7 [1]): 93.6 µM

COc1cc(-c2nn(CCN3CCC(N(C)C)CC3)c3ncnc(N)c23)ccc1CC(=O)N1CCCC1
EC50 (MDA-MB-231 [2]): > 100 µM

CCOC(Cn1nc(-c2ccc3ncccc3c2)c2c(N)ncnc21)OCC
EC50 (MCF7 [1]): 263 µM

COc1cc(-c2ccn(CCN3CCC(N(C)C)CC3)n2)ccc1NC(=O)OC(C)(C)C
EC50 (MDA-MB-231 [2]): 32.6 µM

Cc1ccc(-c2nn(CCN3CCC(N(C)C)CC3)c3ncnc(N)c23)cc1
IC50 [3]: 6.58 µM | IC50 [4]: > 10 µM | Activity (MCF7 [5]): Active | IC50 [6]: > 10 µM | IC50 [7]: > 10 µM

COc1cc(-c2nn(CCN3CCC(N(C)C)CC3)c3ncnc(N)c23)ccc1NC(=O)CCc1ccccc1
EC50 (MDA-MB-231 [2]): 12.2 µM

COc1ccc(-c2nn(CCN3CCC(CN(C)C)CC3)c3ncnc(N)c23)cc1OC
EC50 (MCF7 [1]): 18.3 µM

COc1cc(-c2nn(CCN3CCC(CN(C)C)CC3)c3ncnc(N)c23)ccc1NC(=O)OC(C)(C)C
Activity [8]: Non-toxic

CCOC(Cn1nc(-c2ccc(OC)c(OC)c2)c2c(N)ncnc21)OCC
EC50 (MCF7 [1]): 6.1 µM

CCOC(Cn1nc(-c2cnc3[nH]ccc3c2)c2c(N)ncnc21)OCC
IC50 [3]: 0.598 µM | IC50 [9]: 2.45 µM | IC50 [10]: 0.566 µM | IC50 [4]: 0.328 µM | IC50 [6]: > 10 µM | IC50 [7]: > 10 µM | IC50 [11]: 1.23 µM | Activity (MCF7 [12]): Active | IC50 [13]: 1.21 µM

COc1cc(-c2nn(CCN3CCC(N(C)C)CC3)c3ncnc(N)c23)ccc1NC(=O)OC(C)(C)C
Activity (MDA-MB-231 [14]): Active | Activity (MCF7 [15]): Active | TDI [16]: inactive | inhibition (INH) (Cytochrome P450 2C9): Not Active | Stability (Plasma [17]): Stable | inhibition (INH) (Cytochrome P450 2C19): Not Active | Activity (MDA-MB-231 [18]): Toxic | Activity [8]: Non-toxic | inhibition (INH) (Cytochrome P450 2D6): Not Active | Stability (Plasma [19]): Stable | inhibition [20]: inactive | IC50 [7]: > 10 µM | inhibition (INH) (Cytochrome P450 1A2): Active | inhibition (Mus musculus): Active | Activity (Danio rerio [21]): Non-toxic | Stability (Plasma [22]): Stable | inhibition (INH) (Cytochrome P450 3A4): Not Active

Cc1nc(Nc2ncc(C(=O)Nc3c(C)cccc3Cl)s2)cc(N2CCN(CCO)CC2)n1.O [DASATINIB]
Activity (MDA-MB-231 [23]): Dose-dependent effect | Activity (Danio rerio [24]): Toxic | half-life [25]: 54 min | solubility [26]: 18 mg/mL | Activity (Danio rerio [27]): Toxic | solubility [28]: < 0.001 mg/mL | Activity (Danio rerio [29]): Toxic

Cc1ccc(-c2nn(C(C)(C)C)c3ncnc(N)c23)cc1
IC50 [10]: 0.036 µM | IC50 [6]: 0.657 µM

CN(C)C1CCN(CCn2nc(-c3ccc(NC(=O)OC(C)(C)C)cc3)c3c(N)ncnc32)CC1
IC50 [9]: 0.071 µM | IC50 [13]: > 10 µM

CN(C)C1CCN(CCn2nc(-c3ccc(NC(=O)OC(C)(C)C)c(O)c3)c3c(N)ncnc32)CC1
EC50 (MDA-MB-231 [2]): 9.71 µM

COc1cc(-c2nn(CCN3CCC(N(C)C)CC3)c3ncnc(N)c23)ccc1NCc1cccnc1
EC50 (MDA-MB-231 [2]): 4.14 µM
